How the values were obtained:
Assay type in all cases: physicochemical
[1] = Stability of zotarolimus on storage (potency over time, no anti-oxidant)
Method: Several lots of zotarolimus prepared by the one-pot methods lost significant potency over time. The potency loss was higher at increased temperature, but there was no apparent change in the impurity profile. Table 2 presents the potency of a lot of zotarolimus at various time intervals and temperature conditions. […] This loss was exacerbated in a sealed container when held at 40° C.—from 96.0% to 37.4% over just two months.

[2] = Zotarolimus stability with various concentrations of BHT
Method: A stability study was carried out to prevent this oxidation using phenolic anti-oxidants and identified BHT as a suitable compound. Tables 3 and 4 present stability data using BHT at various concentrations (% represented w/w) and temperatures.

[3] = Equilibration studies of pyran and oxepane forms of zotarolimus without buffer (acetonitrile/water, C-18 HPLC); conditions: non-buffered, 66% acetonitrile in water
Method: Studies were also carried out under non-buffered conditions in a solvent mixture of acetonitrile/water. Multiple injections of zotarolimus were performed on a C-18 Altima column (Alltech Associates, Inc.; Deerfield, Ill.) using 66% acetonitrile in water in a non-buffered media. The pyran and oxepane forms were collected. These forms were re-injected on C-18 column to study the equilibrium ratio at various intervals. […] These observations confirmed that zotarolimus exists in an equilibrium mixture of […] pyran (1) vs. oxepane (2) forms.

potency ([1]; storage 5° C. (sealed), 1 month after synthesis): 95.0%
potency ([1]; storage 5° C. (sealed), 2 months after synthesis): 95.4%
potency ([1]; storage 5° C. (sealed), 2 weeks after synthesis): 98.2%
potency ([1]; storage 5° C. (sealed), 3 months after synthesis): 95.1%
potency ([1]; storage 5° C. (sealed), Initial): 95.7%
potency ([1]; storage 25° C. (sealed), 1 month after synthesis): 88.8%
potency ([1]; storage 25° C. (sealed), 2 months after synthesis): 81.6%
potency ([1]; storage 25° C. (sealed), 2 weeks after synthesis): 95.7%
potency ([1]; storage 25° C. (sealed), 3 months after synthesis): 69.8%
potency ([1]; storage 25° C. (sealed), Initial): 95.1%
potency ([1]; storage 25° C. (unsealed), 1 month after synthesis): 91.6%
potency ([1]; storage 25° C. (unsealed), 2 months after synthesis): 87.1%
potency ([1]; storage 25° C. (unsealed), 2 weeks after synthesis): 98.0%
potency ([1]; storage 25° C. (unsealed), 3 months after synthesis): 75.5%
potency ([1]; storage 25° C. (unsealed), Initial): 95.5%
potency ([1]; storage 40° C. (sealed), 1 month after synthesis): 61.9%
potency ([1]; storage 40° C. (sealed), 2 months after synthesis): 37.4%
potency ([1]; storage 40° C. (sealed), 2 weeks after synthesis): 81.1%
potency ([1]; storage 40° C. (sealed), Initial): 96%
stability at room temperature ([1]; without anti-oxidant): unstable at room temperature
potency ([2]; 4° C., BHT 0.0%, 0 weeks): 97.2%
potency ([2]; 4° C., BHT 0.0%, 2 weeks): 95.2%
potency ([2]; 4° C., BHT 0.0%, 4 weeks): 96.4%
potency ([2]; 4° C., BHT 0.0%, 6 weeks): 96.6%
potency ([2]; 4° C., BHT 0.0%, 8 weeks): 97.5%
potency ([2]; 4° C., BHT 0.0%, 12 weeks): 95.9%
potency ([2]; 4° C., BHT 0.1%, 0 weeks): 96.7%
potency ([2]; 4° C., BHT 0.1%, 2 weeks): 96.7%
potency ([2]; 4° C., BHT 0.1%, 4 weeks): 97.3%
potency ([2]; 4° C., BHT 0.1%, 6 weeks): 96.8%
potency ([2]; 4° C., BHT 0.1%, 8 weeks): 96.9%
potency ([2]; 4° C., BHT 0.1%, 12 weeks): 96.8%
potency ([2]; 4° C., BHT 0.2%, 0 weeks): 96.3%
potency ([2]; 4° C., BHT 0.2%, 2 weeks): 96.7%
potency ([2]; 4° C., BHT 0.2%, 4 weeks): 97.5%
potency ([2]; 4° C., BHT 0.2%, 6 weeks): 96.9%
potency ([2]; 4° C., BHT 0.2%, 8 weeks): 96.9%
potency ([2]; 4° C., BHT 0.2%, 12 weeks): 96.8%
potency ([2]; 4° C., BHT 0.5%, 0 weeks): 96.5%
potency ([2]; 4° C., BHT 0.5%, 2 weeks): 96.5%
potency ([2]; 4° C., BHT 0.5%, 4 weeks): 96.2%
potency ([2]; 4° C., BHT 0.5%, 6 weeks): 95.7%
potency ([2]; 4° C., BHT 0.5%, 8 weeks): 96.9%
potency ([2]; 4° C., BHT 1.0%, 0 weeks): 95.9%
potency ([2]; 4° C., BHT 1.0%, 2 weeks): 96.3%
potency ([2]; 4° C., BHT 1.0%, 4 weeks): 96.6%
potency ([2]; 4° C., BHT 1.0%, 6 weeks): 96.1%
potency ([2]; 4° C., BHT 1.0%, 8 weeks): 96.9%
potency ([2]; 4° C., BHT 1.0%, 12 weeks): 95.5%
potency ([2]; 40° C., BHT (w/w) 0.1%, 0 weeks): 96.7%
potency ([2]; 40° C., BHT (w/w) 0.1%, 2 weeks): 96.5%
potency ([2]; 40° C., BHT (w/w) 0.1%, 4 weeks): 96.9%
potency ([2]; 40° C., BHT (w/w) 0.1%, 6 weeks): 96.1%
potency ([2]; 40° C., BHT (w/w) 0.1%, 8 weeks): 96.2%
potency ([2]; 40° C., BHT (w/w) 0.1%, 12 weeks): 95.6%
potency ([2]; 40° C., BHT (w/w) 0.2%, 0 weeks): 96.3%
potency ([2]; 40° C., BHT (w/w) 0.2%, 2 weeks): 96.6%
potency ([2]; 40° C., BHT (w/w) 0.2%, 4 weeks): 97.2%
potency ([2]; 40° C., BHT (w/w) 0.2%, 6 weeks): 97.1%
potency ([2]; 40° C., BHT (w/w) 0.2%, 8 weeks): 97.0%
potency ([2]; 40° C., BHT (w/w) 0.5%, 0 weeks): 96.5%
potency ([2]; 40° C., BHT (w/w) 0.5%, 2 weeks): 96.1%
potency ([2]; 40° C., BHT (w/w) 0.5%, 4 weeks): 96.4%
potency ([2]; 40° C., BHT (w/w) 0.5%, 6 weeks): 95.7%
potency ([2]; 40° C., BHT (w/w) 0.5%, 8 weeks): 96.1%
potency ([2]; 40° C., BHT (w/w) 0.5%, 12 weeks): 95.9%
potency ([2]; 40° C., BHT (w/w) 1.0%, 0 weeks): 95.9%
potency ([2]; 40° C., BHT (w/w) 1.0%, 2 weeks): 95.4%
potency ([2]; 40° C., BHT (w/w) 1.0%, 4 weeks): 96.4%
potency ([2]; 40° C., BHT (w/w) 1.0%, 6 weeks): 95.6%
potency ([2]; 40° C., BHT (w/w) 1.0%, 8 weeks): 96.5%
potency ([2]; 40° C., BHT (w/w) 1.0%, 12 weeks): 95.8%
time to complete equilibration between two isomers [3]: 7 to 8 h
Structure (SMILES): CO[C@H]1C[C@@H]2CC[C@@H](C)[C@@](O)(O2)C(=O)C(=O)N2CCCC[C@H]2C(=O)O[C@H]([C@H](C)C[C@@H]2CC[C@H](n3cnnn3)[C@H](OC)C2)CC(=O)[C@H](C)/C=C(\C)[C@@H](O)[C@@H](OC)C(=O)[C@H](C)C[C@H](C)/C=C/C=C/C=C/1C [zotarolimus, 40-epi-(1-tetrazolyl)-rapamycin]

Source: US8129521B2, “One pot synthesis of tetrazole derivatives of rapamycin” (Abbott Laboratories, priority 2005, dated 2012)
